Measured values from US10106556B2, “Heterocyclic compound” (TAKEDA PHARMACEUTICAL COMPANY LIMITED, priority 2015, dated 2018).

Molecular target: T1, His-hMAGL (recombinant polyhistidine tagged human MAGL protein) (Homo sapiens, UniProt Q99685)
T1 construct: made in house; host or cells: E. coli BL21(DE3)
T1 sequence (Q99685 1-303): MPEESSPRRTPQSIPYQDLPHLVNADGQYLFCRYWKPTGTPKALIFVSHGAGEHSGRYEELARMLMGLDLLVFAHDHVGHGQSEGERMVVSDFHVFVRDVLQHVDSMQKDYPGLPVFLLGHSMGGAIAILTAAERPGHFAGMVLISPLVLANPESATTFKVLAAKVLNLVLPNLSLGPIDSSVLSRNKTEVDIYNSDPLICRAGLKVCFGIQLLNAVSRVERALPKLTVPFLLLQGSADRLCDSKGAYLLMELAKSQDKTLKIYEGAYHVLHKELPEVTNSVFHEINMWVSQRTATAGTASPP
Experiment: Measurement of MAGL inhibitory activity (arachidonic acid production from 2-arachidonylglycerol, RapidFire-mass spectrometry)
Format: biochemical
Details: MAGL inhibitory rate at 10 μM test compound, 60 min preincubation with His-hMAGL, 2-arachidonylglycerol substrate, 10 min reaction at room temperature
In short: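 Inhibition (%) was derived from arachidonic acid levels relative to enzyme-free and compound-free groups. Product was measured by online C4 solid-phase extraction and triple-quadrupole MS in negative SRM mode, corrected by arachidonic acid-d8 (3 μM in the acetonitrile added). Substrate was 2-arachidonylglycerol; enzyme was His-tagged recombinant human MAGL.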

Structure (SMILES) | inhibition at 10 µM | % inhibition (10 μM) (10 µM)
O=C1COc2ccc(C(=O)N3CCC(COc4ccccc4OC(F)(F)F)CC3)cc2N1 [Example 53, 6-((4-((2-(trifluoromethoxy)phenoxy)methyl)piperidin-1-yl)carbonyl)-2H-1,4-benzoxazin-3(4H)-one] | 96% | 
O=C1COc2cc(F)c(C(=O)N3CC(OCc4cccc(F)c4)C3)cc2N1 [Example 331, 7-fluoro-6-((3-((3-fluorobenzyl)oxy)azetidin-1-yl)carbonyl)-2H-1,4-benzoxazin-3(4H)-one] | 100% | 
O=C1COc2cc(F)c(C(=O)N3CC(COc4ccc(Cl)cc4-c4ccc(Cl)nc4)C3)cc2N1 [Example 205, 6-((3-((4-chloro-2-(6-chloropyridin-3-yl)phenoxy)methyl)azetidin-1-yl)carbonyl)-7-fluoro-2H-1,4-benzoxazin-3(4H)-one] | 103% | 
CC(Oc1ccc(F)cc1F)C1CCN(C(=O)c2cc3c(cc2F)OCC(=O)N3)CC1 (centres unmarked) [Example 294, 6-((4-(1-(2,4-difluorophenoxy)ethyl)piperidin-1-yl)carbonyl)-7-fluoro-2H-1,4-benzoxazin-3(4H)-one] | 99% | 
CC1(C)Cc2cccc(OCC3CN(C(=O)c4cc5c(cc4F)OCC(=O)N5)C3)c2O1 [Example 103, 6-((3-(((2,2-dimethyl-2,3-dihydro-1-benzofuran-7-yl)oxy)methyl)azetidin-1-yl)carbonyl)-7-fluoro-2H-1,4-benzoxazin-3(4H)-one] | 102% | 
Cc1cc(-c2ccc(OCC3CN(C(=O)c4cc5c(cc4F)OCC(=O)N5)C3)c(F)c2)ccn1 [Example 264, 7-fluoro-6-((3-((2-fluoro-4-(2-methylpyridin-4-yl)phenoxy)methyl)azetidin-1-yl)carbonyl)-2H-1,4-benzoxazin-3(4H)-one] | 101% | 
Cn1cc(-c2cc(Cl)ccc2OCC2CN(C(=O)c3cc4c(cc3F)OCC(=O)N4)C2)cn1 [Example 213, 6-((3-((4-chloro-2-(1-methyl-1H-pyrazol-4-yl)phenoxy)methyl)azetidin-1-yl)carbonyl)-7-fluoro-2H-1,4-benzoxazin-3(4H)-one] | 100% | 
CC(C)Cn1cc(-c2cc(Cl)ccc2OCC2CN(C(=O)c3cc4c(cc3F)OCC(=O)N4)C2)cn1 [Example 224, 6-((3-((4-chloro-2-(1-isobutyl-1H-pyrazol-4-yl)phenoxy)methyl)azetidin-1-yl)carbonyl)-7-fluoro-2H-1,4-benzoxazin-3(4H)-one] | 103% | 
O=C(c1ccc2ccc(=O)[nH]c2c1)N1CCC(COc2ccc(F)cc2Cl)CC1 [Example 79, 7-((4-((2-chloro-4-fluorophenoxy)methyl)piperidin-1-yl)carbonyl)quinolin-2(1H)-one] | 103% | 
Cc1nc(C)c(-c2cc(Cl)ccc2OCC2CN(C(=O)c3cc4c(cc3F)OCC(=O)N4)C2)s1 [Example 268, 6-((3-((4-chloro-2-(2,4-dimethyl-1,3-thiazol-5-yl)phenoxy)methyl)azetidin-1-yl)carbonyl)-7-fluoro-2H-1,4-benzoxazin-3(4H)-one] | 101% | 
CC(Oc1c(F)cccc1F)C1CN(C(=O)c2cc3c(cc2F)OCC(=O)N3)C1 (centres unmarked) [Example 306, 6-((3-(1-(2,6-difluorophenoxy)ethyl)azetidin-1-yl)carbonyl)-7-fluoro-2H-1,4-benzoxazin-3(4H)-one] | 100% | 
O=C1COc2ccc(C(=O)N3CCC(COc4cccc(F)c4Cl)CC3)cc2N1 [Example 56, 6-((4-((2-chloro-3-fluorophenoxy)methyl)piperidin-1-yl)carbonyl)-2H-1,4-benzoxazin-3(4H)-one] | 101% | 
O=C1COc2cc(F)c(C(=O)N3CC(COc4ccc(F)c(F)c4)C3)cc2N1 [Example 158, 6-((3-((3,4-difluorophenoxy)methyl)azetidin-1-yl)carbonyl)-7-fluoro-2H-1,4-benzoxazin-3(4H)-one] | 103% | 
O=C1COc2ccc(C(=O)N3CCC(COc4cc(F)ccc4Cl)CC3)cc2N1 [Example 31, 6-((4-((2-chloro-5-fluorophenoxy)methyl)piperidin-1-yl)carbonyl)-2H-1,4-benzoxazin-3(4H)-one] | 97% | 
O=C1COc2cc(F)c(C(=O)N3CC(COc4ccccc4C4CCCC4)C3)cc2N1 [Example 166, 6-((3-((2-cyclopentylphenoxy)methyl)azetidin-1-yl)carbonyl)-7-fluoro-2H-1,4-benzoxazin-3(4H)-one] | 98% | 
O=C1COc2ccc(C(=O)N3CCC(COc4ccccc4C4CC4)CC3)cc2N1 [Example 65, 6-((4-((2-cyclopropylphenoxy)methyl)piperidin-1-yl)carbonyl)-2H-1,4-benzoxazin-3(4H)-one] | 96% | 

Structure (SMILES) | inhibition at 10 µM | % inhibition (10 μM) (10 µM)
O=C1COc2cc(F)c(C(=O)N3CC(COc4ccc(C(F)(F)F)c(F)c4)C3)cc2N1 [Example 277, 7-fluoro-6-((3-((3-fluoro-4-(trifluoromethyl)phenoxy)methyl)azetidin-1-yl)carbonyl)-2H-1,4-benzoxazin-3(4H)-one] | 104% | 
O=C1COc2ccc(C(=O)N3CCC(COc4cccc(C(F)(F)F)c4)CC3)cc2N1 [Example 57, 6-((4-((3-(trifluoromethyl)phenoxy)methyl)piperidin-1-yl)carbonyl)-2H-1,4-benzoxazin-3(4H)-one] | 99% | 
O=C1COc2cc(F)c(C(=O)N3CC(COCC4CC4)C3)cc2N1 [Example 225, 6-((3-((cyclopropylmethoxy)methyl)azetidin-1-yl)carbonyl)-7-fluoro-2H-1,4-benzoxazin-3(4H)-one] | 85% | 
O=C1COc2cc(F)c(C(=O)N3CC(COc4ccc(C(F)F)cc4F)C3)cc2N1 [Example 288, 6-((3-((4-(difluoromethyl)-2-fluorophenoxy)methyl)azetidin-1-yl)carbonyl)-7-fluoro-2H-1,4-benzoxazin-3(4H)-one] | 101% | 
CCc1ccc(-c2ccnc(C)c2OCC2CN(C(=O)c3cc4c(cc3F)OCC(=O)N4)C2)nc1 [Example 176, 6-((3-(((5-ethyl-2′-methyl-2,4′-bipyridin-3′-yl)oxy)methyl)azetidin-1-yl)carbonyl)-7-fluoro-2H-1,4-benzoxazin-3(4H)-one] | 95% | 
O=C1COc2ncc(C(=O)N3CCC(COc4ccc(Cl)cc4)CC3)cc2N1 [Example 6, 7-((4-((4-chlorophenoxy)methyl)piperidin-1-yl)carbonyl)-1H-pyrido[2,3-b][1,4]oxazin-2(3H)-one] | 98% | 
CC(=O)n1ncc2c(OCC3CCN(C(=O)c4ccc5c(c4)NC(=O)CO5)CC3)cccc21 [Example 63, 6-((4-(((1-acetyl-1H-indazol-4-yl)oxy)methyl)piperidin-1-yl)carbonyl)-2H-1,4-benzoxazin-3(4H)-one] | 93% | 
N#Cc1cc(Cl)ccc1OCC1CN(C(=O)c2cc3c(cc2F)OCC(=O)N3)C1 [Example 119, 5-chloro-2-((1-((7-fluoro-3-oxo-3,4-dihydro-2H-1,4-benzoxazin-6-yl)carbonyl)azetidin-3-yl)methoxy)benzonitrile] | 102% | 
CC(Oc1cc(F)cc(F)c1)C1CN(C(=O)c2cc3c(cc2F)OCC(=O)N3)C1 (centres unmarked) [Example 315, 6-((3-(1-(3,5-difluorophenoxy)ethyl)azetidin-1-yl)carbonyl)-7-fluoro-2H-1,4-benzoxazin-3(4H)-one] |  | 102%
COc1cccc(COC2CN(C(=O)c3cc4c(cc3F)OCC(=O)N4)C2)c1 [Example 328, 7-fluoro-6-((3-((3-methoxybenzyl)oxy)azetidin-1-yl)carbonyl)-2H-1,4-benzoxazin-3(4H)-one] | 101% | 
O=C1COc2cc(F)c(C(=O)N3CC(COc4ccc5ccncc5c4)C3)cc2N1 [Example 172, 7-fluoro-6-((3-((isoquinolin-7-yloxy)methyl)azetidin-1-yl)carbonyl)-2H-1,4-benzoxazin-3(4H)-one] | 100% | 
N#Cc1ccccc1OCC1CCN(C(=O)c2ccc3c(c2)NC(=O)CO3)CC1 [Example 30, 2-((1-((3-oxo-3,4-dihydro-2H-1,4-benzoxazin-6-yl)carbonyl)piperidin-4-yl)methoxy)benzonitriie] | 98% | 
O=C1COc2cc(F)c(C(=O)N3CC(COc4ccc(F)cc4Cl)C3)c(F)c2N1 [Example 281, 6-((3-((2-chloro-4-fluorophenoxy)methyl)azetidin-1-yl)carbonyl)-5,7-difluoro-2H-1,4-benzoxazin-3(4H)-one] | 100% | 
COc1ccc(COC2CN(C(=O)c3cc4c(cc3F)OCC(=O)N4)C2)c(Cl)c1 [Example 347, 6-((3-((2-chloro-4-methoxybenzyl)oxy)azetidin-1-yl)carbonyl)-7-fluoro-2H-1,4-benzoxazin-3(4H)-one] | 102% | 
O=C1COc2cc(F)c(C(=O)N3CCC(COc4cccc5scnc45)CC3)cc2N1 [Example 186, 6-((4-((1,3-benzothiazol-4-yloxy)methyl)piperidin-1-yl)carbonyl)-7-fluoro-2H-1,4-benzoxazin-3(4H)-one] | 97% | 
O=C1COc2cc(F)c(C(=O)N3CC(COc4ccc(Cl)cc4-c4ccc(F)cn4)C3)cc2N1 [Example 195, 6-((3-((4-chloro-2-(5-fluoropyridin-2-yl)phenoxy)methyl)azetidin-1-yl)carbonyl)-7-fluoro-2H-1,4-benzoxazin-3(4H)-one] | 101% | 
